Patent US12344879B2, “Transgenic bacteria with expanded amino acid usage and nucleic acid molecules for use in the same” (BOARD OF REGENTS, THE UNIVERSITY OF TEXAS SYSTEM, priority 2015, dated 2025)

What was measured:
[1] = test system: human cellular glutathione peroxidase (GPx-1) codon 49; assay: Selenocysteine incorporation into GPx-1 U49 by intact mass spectrometry; parameters: species or system E. coli RTΔA.2; conditions: GPx-1 U49, pGPx-U49-AU and pRSF-eSelAK
Method: RTΔA.2 transformants containing pGPx-U49-AU and pRSF-eSelAK were cultured as described previously for azurin. Cells were harvested by centrifugation and resuspended in 50 mL of buffer (50 mM Potassium Phosphate, 150 mM NaCl, 10% glycerol, 1 mM DTT at pH 8.0) and lysozyme at 1 mg·mL^−1. Cells were lysed by sonication and clarified prior to GPx-1 recovery by IMAC. Eluate was concentrated and dialyzed against 100 mM phosphate buffer pH 8.0, 0.1% Tween 20 and 1 mM DTT followed by isolation of GPx-1 by anion exchange chromatography (Q HP column). GPx-1 was produced with a yield of 500 μg·L^−1 and close to 100% selenocysteine incorporation efficiency.
Intact protein samples were analyzed using methods described previously (Ellefson et al., 2014). Azurin, DHFR and GPx-1 samples were buffer exchanged into LC-MS grade water using 10 kDa molecular weight cutoff filters. Once the buffer exchange was complete the samples were diluted to 20 μM in a methanol/water/formic acid (50/49/1) solution. […] UVPD mass spectra were also deconvoluted using Xtract and then analyzed using ProsightPC 3.0. […] Incorporation efficiencies were calculated by dividing the area of the modified protein peak by the summed areas of the unmodified protein peak and the modified protein peak. […]

[2] = test system: NMC-A β-lactamase reporter (C69X); assay: NMC-A β-lactamase reporter assay (ampicillin resistance by amber suppression with selenocysteine); type: cell-based, E. coli DHΔabc; conditions: NMC-A C69X reporter, DHΔabc
From the text: A method of genetic selection capable of discriminating different levels of selenocysteine incorporation was developed. To specifically ‘addict’ a reporter protein to selenocysteine rather than serine, the NMC-A β-lactamase from Enterobacter cloacae was used. […] Then cysteine 69 was replaced with an amber stop codon (X69; FIG. 1a) for library selection, hypothesizing that the incorporation of selenocysteine and the formation of a selenyl-sulfhydryl bond would restore activity. (Swardn et al., 1998)
To eliminate any crosstalk between the tRNA^Sec library and the endogenous selenocysteine incorporation machinery, the selA, selB and selC genes (encoding SelA, SelB and tRNA^Sec respectively) were deleted from E. coli DH10B (designated DHΔabc). Cells containing the reporter plasmid pNMC-A C69X and the accessory plasmid pRSF-eSelA (expressing SelA) were transformed with plasmid pMB1-ZU containing the tRNA^Sec antideterminant library. Transformants were plated on media containing a gradient of ampicillin concentrations for selection of mutants capable of selenocysteine-specific suppression. The single colonies that arose covered a range of ampicillin concentrations. […] Of these tRNA^Sec variants, only G7-C66:U49-G65:C50-U64 was detected at the two highest ampicillin concentration (200 and 250 μg·ml^−1).
The tRNA^Sec antideterminant library was generated by enzymatic inverse PCR using oligonucleotide primers (Table 2) to randomize the six positions identified as the main antideterminant for EF-Tu binding. Following self ligation for 16 hours, DNA was ethanol precipitated with GlycoBlue (Ambion) and transformed by electroporation into E. coli DHΔabc containing the plasmids pNMC-A C69X and pRSF-eSelA. Transformants were diluted in 200 ml LB medium containing 12.5 μg·mL^−1 Zeocin, 6.25 μg·mL^−1 tetracycline and 25 μg·mL^−1 kanamycin and incubated overnight. Following overnight growth, cells were diluted 1/50 in LB medium containing 6.25 μg·mL^−1 Zeocin, 3.75 μg·mL^−1 tetracycline, 12.5 μg·mL^−1 kanamycin, 1 μM Na2SeO3 and 20 μg·mL^−1 L-cysteine and incubated for one hour. A series of 250 μl aliquots of cells were plated on LB agar containing 6.25 μg·mL^−1 Zeocin, 3.75 μg·mL^−1 tetracycline, 12.5 […], 1 μM Na2SeO3 and 20 μg·mL^−1 L-cysteine and 50-300 μg·mL^−1 ampicillin in 50 μg·mL^−1 increments. After 20 hours at 37° C. individual colonies were observed on plates containing 50-200 μg·mL^−1 ampicillin. Plasmid DNA was isolated from a selection of colonies from all plates and tRNA^Sec mutations determined by Sanger sequencing.
NotI/NcoI fragments containing tRNA^SecUx were subcloned into pRSF-eSelA to generate pRSF-UX-eSelA. pRSF-U-eSelA variants described in Table 1 were transformed into E. coli DHΔabc containing the reporter plasmid pNMC-A C69TAG. DHΔabc cells containing pNMC-A and pRSFDuet-1 were used as a positive control. DHΔabc cells harboring pNMC-A C69S and pRSF-UX-eSelA, and pNMC-A C69TAG and pRSF-UX-ΔSelA were used as controls for selenocysteine dependent β-lactamase activity. Transformants were cultured overnight in LB medium containing 6.25 μg·mL^−1 tetracycline, 25 μg·mL^−1 kanamycin, 1 μM Na2SeO3 and 20 […]. Following overnight growth, cells were diluted 1/10 in LB medium containing antibiotics, selenite and L-cysteine and incubated for three hours. […]

[3] = test system: E. coli formate dehydrogenase H (FdhH); assay: Benzyl viologen assay; type: cell-based, E. coli DHΔabcF; conditions: FdhH U140TAG or U140S reporter, co-expressed with SelA, anaerobic
Method: The tRNA^Sec variant containing the G7-C66:U49-G65:C50-U64 (SEQ ID NO: 18) antideterminant sequence was designated tRNA^SecUx and was compared with the previously designed chimera (tRNA^UTu) and with a tRNA^Sec derivative designed to have an antideterminant region that should tightly bind EF-Tu (tRNA^UG; FIG. 2a). […] The hybrid tRNA^UTu incorporated selenocysteine and could grow on 75 μg·ml^−1. […] To further confirm tRNA^SecUx incorporated selenocysteine in response to amber stop codons, a standard colorimetric assay was employed based on the activity of the endogenous E. coli selenoprotein formate dehydrogenase H (FdhH) (FIG. 2b).
E. coli DH10B cells containing pRSFDuet-1 and pcat-pheS were used as a positive control. DHΔabcF cells harboring p15A-fdhF U140S and pRSF-UX-eSelA, and p15A-fdhF U140X and pRSF-UX-ΔSelA were used as controls for selenocysteine dependent formate dehydrogenase activity. Transformants were grown overnight at 37° C. in LB medium supplemented with 12.5 μg·mL^−1 tetracycline and 50 μg·mL^−1 kanamycin. Overnight cultures were diluted 1/20 in a final volume of 2 ml and incubated for three hours. Cultures were normalized to OD600=0.5 and 5 μl aliquots were dotted on LB agar plates containing 3.75 μg·mL^−1 tetracycline, 12.5 μg·mL^−1 kanamycin, 5 mM sodium formate, 10 μM Na2MoO4, 1 μM Na2SeO3 and 20 μg·mL^−1 L-cysteine. Plates were incubated at 37° C. for 3 h under aerobic conditions and then transferred to anaerobic conditions at 37° C. for 60 h. Upon removal from the anaerobic chamber, plates were immediately overlaid with agar containing 1 mg·mL^−1 benzyl viologen, 250 mM sodium formate and 25 mM KH2PO4 at pH 7.0. Plates were photographed within 1 h of overlaying.

| Molecule | production of active β-lactamase [2] | other results |
| --- | --- | --- |
| GPx-1: Recombinant human cellular glutathione peroxidase with selenocysteine at codon 49 |  | selenocysteine incorporation efficiency in GPx-1 [1]: ~100% |
| tRNA^SecCUA: Parental E. coli tRNA^Sec containing a CUA anticodon [reference compound] | failed to produce active β-lactamase |  |
| tRNA^UG: tRNA^Sec derivative with strong EF-Tu binding region from the major E. coli tRNA^Gly (nucleic acid, expressed or natural sequence) GGAAGATGGTCGTCTCCGGTGAGGCGGCTGGACTCTAAATCCAGTTGGGGCCGCCAGCGGTCCCGGCGAGGTTCGACTCCTCGTATCTTCCGCCA | failed to produce active β-lactamase |  |
| FdhH U140S: E. coli formate dehydrogenase H with serine in place of selenocysteine 140 (protein, UniProt P07658 1-715, looked up, variant U140S) Formate dehydrogenase H: MKKVVTVCPYCASGCKINLVVDNGKIVRAEAAQGKTNQGTLCLKGYYGWDFINDTQILTPRLKTPMIRRQRGGKLEPVSWDEALNYVAERLSAIKEKYGPDAIQTTGSSRGTGNETNYVMQKFARAVIGTNNVDCCARVSHGPSVAGLHQSVGNGAMSNAINEIDNTDLVFVFGYNPADSHPIVANHVINAKRNGAKIIVCDPRKIETARIADMHIALKNGSNIALLNAMGHVIIEENLYDKAFVASRTEGFEEYRKIVEGYTPESVEDITGVSASEIRQAARMYAQAKSAAILWGMGVTQFYQGVETVRSLTSLAMLTGNLGKPHAGVNPVRGQNNVQGACDMGALPDTYPGYQYVKDPANREKFAKAWGVESLPAHTGYRISELPHRAAHGEVRAAYIMGEDPLQTDAELSAVRKAFEDLELVIVQDIFMTKTASAADVILPSTSWGEHEGVFTAADRGFQRFFKAVEPKWDLKTDWQIISEIATRMGYPMHYNNTQEIWDELRHLCPDFYGATYEKMGELGFIQWPCRDTSDADQGTSYLFKEKFDTPNGLAQFFTCDWVAPIDKLTDEYPMVLSTVREVGHYSCRSMTGNCAALAALADEPGYAQINTEDAKRLGIEDEALVWVHSRKGKIITRAQVSDRPNKGAIYMTYQWWIGACNELVTENLSPITKTPEYKYCAVRVEPIADQRAAEQYVIDEYNKLKTRLREAALA |  | FdhH activity (reduction of benzyl viologen) [3]: completely inactive |
